Literature values as cited in paper PMC6359455, “Partial Solvation Parameters of Drugs as a New Thermodynamic Tool for Pharmaceutics” (Pharmaceutics, 2019).

Parameters: method as in doi:10.1021/acs.iecr.7b02286; Vx (McGowan volume LSER descriptor): unit not given here
Conditions: common solvents; cited from earlier work

CC(C)O [Isopropanol] and CCC(C)O (stereo not shown) [2-Butanol] are the same in “A (acidity LSER descriptor)” value: 0.330 for the first, 0.330 for the second.

First: Oc1ccccc1 [Phenol]
Second: CO [Methanol]
The “A (acidity LSER descriptor)” value of the first is higher: 0.600 for the first, 0.430 for the second.

First: CC#N [Acetonitrile]
Second: O [Water]
The “A (acidity LSER descriptor)” value of the first is lower: 0.040 for the first, 0.820 for the second.

Going from OCCO [Ethylene glycol] to CCO [Ethanol], the “A (acidity LSER descriptor)” value falls from 0.580 to 0.370.

Compared with OC1CCCCC1 [Cyclohexanol], CCCCCCCCO [1-Octanol] is higher in “A (acidity LSER descriptor)” value: 0.320 for the first, 0.370 for the second.

Compared with ClC(Cl)Cl [Chloroform], ClCCl [Dichloromethane] is lower in “A (acidity LSER descriptor)” value: 0.150 for the first, 0.100 for the second.

CC(C)O [Isopropanol] and CCC(C)O (stereo not shown) [2-Butanol] are the same in “B (basicity LSER descriptor)” value: 0.560 for the first, 0.560 for the second.

Going from Oc1ccccc1 [Phenol] to CO [Methanol], the “B (basicity LSER descriptor)” value rises from 0.300 to 0.470.

Compared with CC#N [Acetonitrile], O [Water] is higher in “B (basicity LSER descriptor)” value: 0.330 for the first, 0.350 for the second.

Going from OCCO [Ethylene glycol] to CCO [Ethanol], the “B (basicity LSER descriptor)” value falls from 0.780 to 0.480.

First: CC(C)=O [Acetone]
Second: CCC(C)=O [Methyl ethyl ketone]
The “B (basicity LSER descriptor)” value of the first is lower: 0.493 for the first, 0.510 for the second.

Compared with OC1CCCCC1 [Cyclohexanol], C1CCOC1 [Tetrahydrofuran] is lower in “B (basicity LSER descriptor)” value: 0.570 for the first, 0.479 for the second.

Going from CCCCOC(C)=O [n-Butyl acetate] to CCOC(C)=O [Ethyl acetate], the “B (basicity LSER descriptor)” value rises from 0.449 to 0.450.

Compared with C1COCCO1 [1,4-Dioxane], CCCCCCCCO [1-Octanol] is lower in “B (basicity LSER descriptor)” value: 0.635 for the first, 0.480 for the second.

Compared with CC(C)O [Isopropanol], CCC(C)O (stereo not shown) [2-Butanol] is higher in “E (excess refractivity LSER descriptor)” value: 0.210 for the first, 0.220 for the second.

Compared with Cc1ccccc1 [Toluene], Oc1ccccc1 [Phenol] is higher in “E (excess refractivity LSER descriptor)” value: 0.600 for the first, 0.808 for the second.

Going from CC#N [Acetonitrile] to O [Water], the “E (excess refractivity LSER descriptor)” value falls from 0.241 to 0.000.

Compared with CO [Methanol], CCO [Ethanol] is lower in “E (excess refractivity LSER descriptor)” value: 0.280 for the first, 0.250 for the second.

First: OCCO [Ethylene glycol]
Second: CCCO [1-Propanol]
The “E (excess refractivity LSER descriptor)” value of the first is higher: 0.400 for the first, 0.240 for the second.

First: CC(C)=O [Acetone]
Second: CCC(C)=O [Methyl ethyl ketone]
The “E (excess refractivity LSER descriptor)” value of the first is higher: 0.180 for the first, 0.170 for the second.

First: OC1CCCCC1 [Cyclohexanol]
Second: C1CCCCC1 [Cyclohexane]
The “E (excess refractivity LSER descriptor)” value of the first is higher: 0.461 for the first, 0.310 for the second.

Going from CCCCOC(C)=O [n-Butyl acetate] to CCOC(C)=O [Ethyl acetate], the “E (excess refractivity LSER descriptor)” value rises from 0.071 to 0.110.

Going from ClC(Cl)(Cl)Cl [Carbon tetrachloride] to ClC(Cl)Cl [Chloroform], the “E (excess refractivity LSER descriptor)” value falls from 0.460 to 0.430.

Compared with c1ccccc1 [Benzene], CCCCO [1-Butanol] is lower in “E (excess refractivity LSER descriptor)” value: 0.610 for the first, 0.220 for the second.

Compared with C1COCCO1 [1,4-Dioxane], C1CCOC1 [Tetrahydrofuran] is lower in “E (excess refractivity LSER descriptor)” value: 0.330 for the first, 0.291 for the second.

First: ClCCl [Dichloromethane]
Second: CCCCCCCCO [1-Octanol]
The “E (excess refractivity LSER descriptor)” value of the first is higher: 0.390 for the first, 0.200 for the second.

Compared with CC(C)O [Isopropanol], CCC(C)O (stereo not shown) [2-Butanol] is lower in “S (polarity LSER descriptor)” value: 0.366 for the first, 0.360 for the second.

Going from Cc1ccccc1 [Toluene] to Oc1ccccc1 [Phenol], the “S (polarity LSER descriptor)” value rises from 0.520 to 0.890.

First: CC#N [Acetonitrile]
Second: O [Water]
The “S (polarity LSER descriptor)” value of the first is higher: 0.900 for the first, 0.450 for the second.

First: CO [Methanol]
Second: CCO [Ethanol]
The “S (polarity LSER descriptor)” value of the first is higher: 0.439 for the first, 0.419 for the second.

First: OCCO [Ethylene glycol]
Second: CCCO [1-Propanol]
The “S (polarity LSER descriptor)” value of the first is higher: 0.900 for the first, 0.420 for the second.

Going from CC(C)=O [Acetone] to CCC(C)=O [Methyl ethyl ketone], the “S (polarity LSER descriptor)” value falls from 0.703 to 0.697.

Compared with OC1CCCCC1 [Cyclohexanol], C1CCCCC1 [Cyclohexane] is lower in “S (polarity LSER descriptor)” value: 0.557 for the first, 0.010 for the second.

Compared with CCCCOC(C)=O [n-Butyl acetate], CCOC(C)=O [Ethyl acetate] is higher in “S (polarity LSER descriptor)” value: 0.597 for the first, 0.618 for the second.

Going from ClC(Cl)(Cl)Cl [Carbon tetrachloride] to ClC(Cl)Cl [Chloroform], the “S (polarity LSER descriptor)” value rises from 0.380 to 0.490.

Going from c1ccccc1 [Benzene] to CCc1ccccc1 [Ethylbenzene], the “S (polarity LSER descriptor)” value falls from 0.520 to 0.510.

Compared with CCCCO [1-Butanol], CCCCCCCCO [1-Octanol] is higher in “S (polarity LSER descriptor)” value: 0.420 for the first, 0.421 for the second.

Compared with C1COCCO1 [1,4-Dioxane], C1CCOC1 [Tetrahydrofuran] is lower in “S (polarity LSER descriptor)” value: 0.744 for the first, 0.524 for the second.

In the case of ClCCl [Dichloromethane], the “S (polarity LSER descriptor)” value is listed as 0.574.

Going from CC(C)O [Isopropanol] to CCC(C)O (stereo not shown) [2-Butanol], the “Vx (McGowan volume LSER descriptor)” value rises from 0.590 to 0.731.

Going from Cc1ccccc1 [Toluene] to Oc1ccccc1 [Phenol], the “Vx (McGowan volume LSER descriptor)” value falls from 0.857 to 0.775.

Compared with CC#N [Acetonitrile], O [Water] is lower in “Vx (McGowan volume LSER descriptor)” value: 0.404 for the first, 0.167 for the second.

Compared with CO [Methanol], CCO [Ethanol] is higher in “Vx (McGowan volume LSER descriptor)” value: 0.308 for the first, 0.449 for the second.

Going from OCCO [Ethylene glycol] to CCCO [1-Propanol], the “Vx (McGowan volume LSER descriptor)” value rises from 0.508 to 0.590.

Compared with CC(C)=O [Acetone], CCC(C)=O [Methyl ethyl ketone] is higher in “Vx (McGowan volume LSER descriptor)” value: 0.547 for the first, 0.688 for the second.

Compared with OC1CCCCC1 [Cyclohexanol], C1CCCCC1 [Cyclohexane] is lower in “Vx (McGowan volume LSER descriptor)” value: 0.904 for the first, 0.845 for the second.

First: CCCCOC(C)=O [n-Butyl acetate]
Second: CCOC(C)=O [Ethyl acetate]
The “Vx (McGowan volume LSER descriptor)” value of the first is higher: 1.028 for the first, 0.747 for the second.

Going from ClC(Cl)(Cl)Cl [Carbon tetrachloride] to ClC(Cl)Cl [Chloroform], the “Vx (McGowan volume LSER descriptor)” value falls from 0.739 to 0.617.

Compared with c1ccccc1 [Benzene], CCCCO [1-Butanol] is higher in “Vx (McGowan volume LSER descriptor)” value: 0.716 for the first, 0.731 for the second.

Going from CCCCCCCC [n-Octane] to CCCCCCCCC [n-Nonane], the “Vx (McGowan volume LSER descriptor)” value rises from 1.236 to 1.377.

Going from CCCCCCC [n-Heptane] to CCCCCC [n-Hexane], the “Vx (McGowan volume LSER descriptor)” value falls from 1.095 to 0.954.

Compared with C1COCCO1 [1,4-Dioxane], C1CCOC1 [Tetrahydrofuran] is lower in “Vx (McGowan volume LSER descriptor)” value: 0.681 for the first, 0.622 for the second.

Going from ClCCl [Dichloromethane] to CCCCCCCCO [1-Octanol], the “Vx (McGowan volume LSER descriptor)” value rises from 0.494 to 1.295.

For CCCCCCCCCC [n-Decane], the “Vx (McGowan volume LSER descriptor)” value is given as 1.518.
